Key:
Assay in all cases: CFU experiments, off and on stroma
Assay type in all cases: cell-based
NB4 cells = conditions: 10^−7 M ATRA, IRX5183, or 10^−8 M AM80
Text: (§1) Data across three independent experiments.

OCI-AML3 cells = conditions: 10^−6 M ATRA, IRX5183, or 10^−7 M AM80
Text: as §1

Kasumi-1 cells = conditions: 10^−6 M ATRA, IRX5183, or 10^−7 M AM80
Text: as §1

Measured: clonogenic growth (CFU), differentiation and elimination of AML

CC1=C(/C=C/C(C)=C/C=C/C(C)=C/C(=O)O)C(C)(C)CCC1 [ATRA, all-trans retinoic acid]
stroma blockage: all assays above
